US12297476B2, “Metallic nanoparticles and methods of making and using the same” (Saint Joseph's University, priority 2020, dated 2025)

Test system: Medicago sativa cells
Details: 200 ppm (highest concentration), after two weeks of continuous growth in liquid medium
Experimental: To determine the IC50 of KAuCl4, the filter sterilized stock solution of KAuCl4 (prepared in deionized water) was added at different concentrations (10-200 ppm) to 20 mL culture having a cell density of 20,000 cells/mL and incubated on the shaker for 2 weeks. Culture aliquots (1 mL) were collected at an interval of 48 h, spun at 2000 rpm for 10 min, stained with phosphate buffered Trypan Blue, and dead cells were counted using a haemocytometer. Percentage of cell death was determined from the total cell number.

[Cl][Au-]([Cl])([Cl])[Cl].[K+] [KAuCl4, potassium gold chloride]
cells eliminated from the culture (cell death): 25%
